Reference: ChEMBL document CHEMBL3616390, “Design and synthesis of N-[6-(Substituted Aminoethylideneamino)-2-Hydroxyindan-1-yl]arylamides as selective and potent muscarinic M₁ agonists” (Bioorg Med Chem Lett, 2015)

Tests used:
Format in all cases: functional, cell-based
[1] = target: T1, Muscarinic acetylcholine receptor M5 (Homo sapiens, UniProt P08912); assay: Agonist activity at human muscarinic M5 receptor expressed in CHO cells after 30 mins by GTPgamma35S binding assay
T1 sequence (P08912 whole entry): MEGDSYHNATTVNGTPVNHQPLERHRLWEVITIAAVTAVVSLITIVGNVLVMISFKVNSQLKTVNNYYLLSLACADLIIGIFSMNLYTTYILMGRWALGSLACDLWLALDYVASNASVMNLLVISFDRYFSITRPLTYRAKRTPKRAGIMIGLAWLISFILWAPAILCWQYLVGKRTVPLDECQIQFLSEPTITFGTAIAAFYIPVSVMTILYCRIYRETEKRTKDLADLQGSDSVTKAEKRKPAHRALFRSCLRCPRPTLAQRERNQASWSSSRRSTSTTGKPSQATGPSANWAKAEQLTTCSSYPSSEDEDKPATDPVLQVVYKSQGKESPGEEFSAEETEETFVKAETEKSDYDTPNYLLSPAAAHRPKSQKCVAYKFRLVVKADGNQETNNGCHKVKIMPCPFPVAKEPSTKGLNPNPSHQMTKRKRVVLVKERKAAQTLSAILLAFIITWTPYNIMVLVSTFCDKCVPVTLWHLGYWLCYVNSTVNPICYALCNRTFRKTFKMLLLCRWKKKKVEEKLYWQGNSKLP

[2] = target: T2, Muscarinic acetylcholine receptor M4 (Homo sapiens) (UniProt P08173); assay: Agonist activity at human muscarinic M4 receptor expressed in CHO cells after 30 mins by GTPgamma35S binding assay relative to oxotremorine-M
T2 sequence (whole entry): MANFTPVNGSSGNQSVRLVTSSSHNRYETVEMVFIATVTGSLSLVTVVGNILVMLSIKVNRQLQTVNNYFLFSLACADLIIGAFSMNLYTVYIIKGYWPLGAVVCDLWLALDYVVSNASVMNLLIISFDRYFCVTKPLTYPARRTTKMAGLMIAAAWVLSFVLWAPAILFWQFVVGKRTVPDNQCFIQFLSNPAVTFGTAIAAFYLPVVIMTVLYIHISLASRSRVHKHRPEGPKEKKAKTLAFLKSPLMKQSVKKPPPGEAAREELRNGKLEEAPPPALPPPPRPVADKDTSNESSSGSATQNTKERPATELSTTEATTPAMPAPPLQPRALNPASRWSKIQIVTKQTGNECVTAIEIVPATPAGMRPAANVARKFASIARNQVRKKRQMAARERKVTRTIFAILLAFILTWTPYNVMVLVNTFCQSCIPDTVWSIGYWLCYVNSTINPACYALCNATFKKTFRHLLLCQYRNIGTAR

[3] = target: T3, Muscarinic acetylcholine receptor M3 (Homo sapiens, UniProt P20309); assay: Agonist activity at human muscarinic M3 receptor expressed in CHO cells after 30 mins by GTPgamma35S binding assay
Target sequence in this assay (P20309 whole entry): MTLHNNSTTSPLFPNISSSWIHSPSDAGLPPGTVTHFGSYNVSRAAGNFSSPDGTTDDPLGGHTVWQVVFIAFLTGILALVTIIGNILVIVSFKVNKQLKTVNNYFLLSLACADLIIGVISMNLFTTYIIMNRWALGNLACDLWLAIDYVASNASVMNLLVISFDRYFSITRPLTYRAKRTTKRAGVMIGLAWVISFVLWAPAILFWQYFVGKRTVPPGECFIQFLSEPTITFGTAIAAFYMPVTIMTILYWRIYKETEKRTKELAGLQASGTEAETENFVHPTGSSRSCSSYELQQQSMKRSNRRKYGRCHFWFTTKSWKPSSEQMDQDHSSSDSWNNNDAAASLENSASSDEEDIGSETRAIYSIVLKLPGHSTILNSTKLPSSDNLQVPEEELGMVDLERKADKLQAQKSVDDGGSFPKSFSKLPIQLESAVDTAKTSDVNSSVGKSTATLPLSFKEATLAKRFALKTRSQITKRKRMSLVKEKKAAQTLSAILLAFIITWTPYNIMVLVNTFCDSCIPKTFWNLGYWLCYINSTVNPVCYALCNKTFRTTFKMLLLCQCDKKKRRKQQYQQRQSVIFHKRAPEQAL

[4] = target: T4, Muscarinic acetylcholine receptor M2 (Homo sapiens) (UniProt P08172); assay: Agonist activity at human muscarinic M2 receptor expressed in CHO cells after 30 mins by GTPgamma35S binding assay relative to oxotremorine-M
T4 sequence (whole entry): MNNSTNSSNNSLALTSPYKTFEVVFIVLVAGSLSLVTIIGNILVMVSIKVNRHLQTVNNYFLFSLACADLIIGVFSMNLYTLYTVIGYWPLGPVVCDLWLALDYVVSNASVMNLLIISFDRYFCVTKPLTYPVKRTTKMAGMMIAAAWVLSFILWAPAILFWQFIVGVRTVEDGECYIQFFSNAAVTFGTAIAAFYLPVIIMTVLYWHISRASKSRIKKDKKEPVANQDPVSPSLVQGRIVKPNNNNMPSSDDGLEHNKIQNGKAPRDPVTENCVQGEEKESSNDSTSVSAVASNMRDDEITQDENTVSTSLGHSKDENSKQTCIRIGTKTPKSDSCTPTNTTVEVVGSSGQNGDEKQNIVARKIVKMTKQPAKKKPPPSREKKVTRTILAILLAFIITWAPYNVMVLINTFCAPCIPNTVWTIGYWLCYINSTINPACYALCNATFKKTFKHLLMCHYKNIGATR

[5] = target: T5, Muscarinic acetylcholine receptor M1 (Homo sapiens) (UniProt P11229); assay: Agonist activity at human muscarinic M1 receptor expressed in CHO cells after 30 mins by GTPgamma35S binding assay relative to oxotremorine-M
T5 sequence (whole entry): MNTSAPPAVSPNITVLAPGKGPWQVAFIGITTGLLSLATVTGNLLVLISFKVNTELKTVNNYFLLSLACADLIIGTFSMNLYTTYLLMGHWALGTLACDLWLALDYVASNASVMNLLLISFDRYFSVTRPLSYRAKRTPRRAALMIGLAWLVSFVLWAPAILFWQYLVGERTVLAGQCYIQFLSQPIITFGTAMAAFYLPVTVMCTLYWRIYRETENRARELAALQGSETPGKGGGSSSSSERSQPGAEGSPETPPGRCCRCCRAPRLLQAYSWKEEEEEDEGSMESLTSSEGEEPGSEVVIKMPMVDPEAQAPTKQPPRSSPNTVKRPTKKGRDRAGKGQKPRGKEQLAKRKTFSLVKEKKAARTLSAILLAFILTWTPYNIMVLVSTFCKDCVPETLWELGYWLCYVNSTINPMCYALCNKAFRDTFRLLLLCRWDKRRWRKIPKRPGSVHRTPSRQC

[6] = target: T6, Muscarinic acetylcholine receptor M1 (Homo sapiens, UniProt P11229); assay: Agonist activity at human muscarinic M1 receptor expressed in CHO cells after 30 mins by GTPgamma35S binding assay
T6 sequence (P11229 whole entry): T5 sequence (whole entry)

[7] = target: T7, Muscarinic acetylcholine receptor M4 (Homo sapiens, UniProt P08173); assay: Agonist activity at human muscarinic M4 receptor expressed in CHO cells after 30 mins by GTPgamma35S binding assay
T7 sequence (P08173 whole entry): T2 sequence (whole entry)

[8] = target: T8, Muscarinic acetylcholine receptor M2 (Homo sapiens, UniProt P08172); assay: Agonist activity at human muscarinic M2 receptor expressed in CHO cells after 30 mins by GTPgamma35S binding assay
T8 sequence (P08172 whole entry): T4 sequence (whole entry)

[9] = target: T3, Muscarinic acetylcholine receptor M3; assay: Agonist activity at human muscarinic M3 receptor expressed in CHO cells after 30 mins by GTPgamma35S binding assay relative to acetylcholine
Target sequence in this assay (P20309 whole entry, looked up): as the sequence (P20309 whole entry) above

[10] = target: T2, Muscarinic acetylcholine receptor M4 (Homo sapiens); assay: Agonist activity at human muscarinic M4 receptor expressed in CHO cells after 30 mins by GTPgamma35S binding assay relative to acetylcholine
[11] = target: T9, Muscarinic acetylcholine receptor M5 (Homo sapiens) (UniProt P08912); assay: Agonist activity at human muscarinic M5 receptor expressed in CHO cells after 30 mins by GTPgamma35S binding assay relative to acetylcholine
T9 sequence (whole entry): T1 sequence (P08912 whole entry)

[12] = target: T4, Muscarinic acetylcholine receptor M2 (Homo sapiens); assay: Agonist activity at human muscarinic M2 receptor expressed in CHO cells after 30 mins by GTPgamma35S binding assay relative to acetylcholine

Row | SMILES | EC50 ([1]; cho) | Efficacy [2] [%] | EC50 ([3]; cho) | Efficacy [4] [%] | Efficacy [5] [%] | EC50 [6] [nM] | EC50 [7] [nM] | EC50 [8] [nM] | Efficacy [9] [%] | Efficacy [10] [%] | Efficacy [11] [%] | EC50 ([1]; read-out: EC50) [nM] | EC50 ([3]; read-out: EC50) [nM] | Efficacy [12] [%]
1 | COc1ccc(C(=O)N[C@@H]2c3cc(/N=C(\C)N(C)Cc4ccc(F)cc4)ccc3C[C@H]2O)cc1 | Not Active | < 20 | Not Active | < 20 | 93.2 | 166 | – | – | – | – | – | – | – | –
2 | C/C(=N\c1ccc2c(c1)[C@@H](NC(=O)c1ccc(Cl)cc1)[C@H](O)C2)N(C)Cc1ccc(F)cc1 | Not Active | 42.8 | Not Active | 45 | 112 | 31 | 405 | 65.5 | – | – | – | – | – | –
3 | COc1cccc(CN/C(C)=N/c2ccc3c(c2)[C@@H](NC(=O)c2ccc(Br)cc2)[C@H](O)C3)c1 | Not Active | < 20 | Not Active | < 20 | 60 | 198 | – | – | – | – | – | – | – | –
4 | COc1ccccc1CN/C(C)=N/c1ccc2c(c1)[C@@H](NC(=O)c1ccc(Br)cc1)[C@H](O)C2 | Not Active | < 20 | Not Active | < 20 | 71.5 | 572 | – | – | – | – | – | – | – | –
5 | CC(=O)OCC[N+](C)(C)C | – | – | – | – | – | – | – | – | 117 | 93.4 | 110 | – | – | –
6 | COc1ccc(N/C(C)=N/c2ccc3c(c2)[C@@H](NC(=O)c2ccc(Br)cc2)[C@H](O)C3)cc1 | Not Active | < 20 | Not Active | < 20 | 35.3 | 105 | – | – | – | – | – | – | – | –
7 | C/C(=N\c1ccc2c(c1)[C@@H](NC(=O)c1ccc(Br)cc1)[C@H](O)C2)N(C)Cc1ccc(F)cc1 | Not Active | 34.3 | Not Active | 30.9 | 107 | 154 | 3720 | 604 | – | – | – | – | – | –
8 | COc1ccc(CCN/C(C)=N/c2ccc3c(c2)[C@@H](NC(=O)c2ccc(Br)cc2)[C@H](O)C3)cc1 | Not Active | 29.9 | Not Active | 38.9 | 84.5 | 426 | 1360 | 411 | – | – | – | – | – | –
9 | C/C(=N\c1ccc2c(c1)[C@@H](NC(=O)c1ccc(Br)cc1)[C@H](O)C2)N(C)CCc1ccc(F)cc1 | Not Active | < 20 | Not Active | 20.8 | 68.5 | 80.9 | – | 342 | – | – | – | – | – | –
10 | C/C(=N\c1ccc2c(c1)[C@@H](NC(=O)c1ccc(Br)cc1)[C@H](O)C2)NCCc1ccc(F)cc1 | Not Active | < 20 | Not Active | 38.5 | 90.6 | 183 | – | 211 | – | – | – | – | – | –
11 | C#CCO[C@H]1CN2CCC1CC2 [TALSACLIDINE] | – | – | – | – | – | 820 | 844 | 849 | 26.1 | 22.2 | 23.7 | 422 | 2700 | 94.4
12 | C/C(=N\c1ccc2c(c1)[C@@H](NC(=O)c1ccc(C(F)(F)F)cc1)[C@H](O)C2)N(C)Cc1ccc(F)cc1 | Not Active | 30.8 | Not Active | 25.4 | 106 | 36 | 393 | 172 | – | – | – | – | – | –
13 | CCCCCCOc1nsnc1C1=CCCN(C)C1 | – | – | – | – | – | – | – | – | < 20 | 48.7 | 25.9 | – | – | 83.5
14 | C/C(=N\c1ccc2c(c1)[C@@H](NC(=O)c1ccc(F)cc1)[C@H](O)C2)N(C)Cc1ccc(F)cc1 | Not Active | 28.4 | Not Active | 43.6 | 76.6 | 392 | 392 | 242 | – | – | – | – | – | –
15 | O=C(N[C@@H]1c2cc(/N=C(/Nc3ccc(F)cc3)C(F)(F)F)ccc2C[C@H]1O)c1ccc(Br)cc1 | Not Active | < 20 | Not Active | < 20 | < 20 | – | – | – | – | – | – | – | – | –
16 | C/C(=N\c1ccc2c(c1)[C@@H](NC(=O)c1ccc(Br)cc1)[C@H](O)C2)NCc1cccc(F)c1 | Not Active | 33.4 | Not Active | 26.6 | 94 | 48.4 | 355 | 435 | – | – | – | – | – | –
17 | C/C(=N\c1ccc2c(c1)[C@@H](NC(=O)c1ccc(Br)cc1)[C@H](O)C2)NCc1ccccc1F | Not Active | 25.7 | Not Active | 33.6 | 78.5 | 87 | 227 | 118 | – | – | – | – | – | –
18 | CO/N=C(\C#N)[C@H]1CN2CCC1CC2 [SABCOMELINE] | – | – | – | – | – | 63.6 | 214 | 62.1 | 28.3 | 21.3 | 38.9 | 123 | 117 | 87.7
19 | CCn1nnc(C2=CCCN(C)C2)n1 | – | – | – | – | – | – | – | – | < 20 | < 20 | < 20 | – | – | 49.2
20 | C/C(=N\c1ccc2c(c1)[C@@H](NC(=O)c1ccc(C)cc1)[C@H](O)C2)N(C)Cc1ccc(F)cc1 | Not Active | 41.5 | Not Active | 45.1 | 106 | 49.5 | 235 | 65.4 | – | – | – | – | – | –
21 | COc1ccc(CN/C(C)=N/c2ccc3c(c2)[C@@H](NC(=O)c2ccc(Br)cc2)[C@H](O)C3)cc1 | Not Active | < 20 | Not Active | < 20 | 32.1 | 837 | – | – | – | – | – | – | – | –
